Counter-ions that a name gives are not always drawn.
Columns and labels:
δ opioid receptors = δ opioid receptors (Rattus norvegicus, UniProt P33533); assay: Opiate Binding Assay, δ (3[H]-DSLET displacement)
μ opioid receptors = μ opioid receptors (Rattus norvegicus, UniProt P33535); assay: Opiate Binding Assay, μ (3[H]-DAMPGO displacement)
CD Charles River mice = assay: Writhing Assay (PBQ-induced writhing); format: in vivo; conditions: mouse; for Writhing Assay, number of mice out of ten in which peptide was active, Intragastric: i.g., 15 min before PBQ; for Writhing Assay, number of mice out of ten in which peptide was active, Intragastric / Writhing Assay, number of mice out of ten in which peptide was active, Subcutaneous: 10 mpk screening dose; for Writhing Assay ED50 value, Subcutaneous / Writhing Assay, number of mice out of ten in which peptide was active, Subcutaneous: s.c.; for Writhing Assay ED50 value, Subcutaneous: 25 min before PBQ i.p.
Excerpt: The "Writhing Assay" is one of the most widely-used experimental procedures for measuring the analgesic activity of different narcotic and nonnarcotic analgesic agents, and involves the continuous, chemically-induced pain of visceral origin to an animal, such as a mouse or rat. [Gyires et al., Arch. int. Pharmacodyn, 267, 131-140 (1984); C. Vander Wende et al., Fed. Proc., 15, 494 (1956); Koster et al., Fed. Proc., 18, 412 (1959); and Witken et al., J. Pharmacol. Exp. Ther., 133, 400-408 (1961).] Chemicals Which may be used to induce this pain include phenylbenzoquinone (PBQ) and acetic acid. As a result of the chemical irritation to the animal, a characteristic stretching and writhing of the animal (dorsiflexion of the animal's back, extension of its hindlimbs and the strong contraction of its abdominal musculature) will generally occur. […] Drugs which reduce the number of writhes of the animal appear to restore the normal nociceptive threshold of the animal.
This assay was conducted generally in the manner described by R. I. Taber, "Predictive Value of Analgesic Assays in Mice and Rats," Advances in Biochemical Psychopharmacology, 8, 191 (1974).
Two hundred CD Charles River mice, weighing 20 to 30 grams were used in this assay.
Twenty-five minutes after subcutaneous administration, and fifteen minutes after intragastric administration, to the mice of 10 mg per kilogram (mpk) of body weight of either a Test Pentapeptide or the Mosberg Pentapeptide, 0.1 ml per 10 g of body weight of a 0.025% w/v solution of PBQ was injected intraperitoneally into each mouse. Some mice were given saline in place of a Test Pentapeptide, or the Mosberg Pentapeptide, and were used as a control group.
Five minutes later, each mouse was individually placed into a glass beaker for observation, and the number of writhes occurring during the following ten-minute period was counted.
A pentapeptide compound was considered to be "active" (to have produced analgesia in a mouse) if, after the administration of 10 mg per kilogram (mpk) of body weight of the compound to the mouse, the number of writhes elicited by a mouse injected with PBQ was equal to, or less than, one-half the median number of writhes recorded for the saline-treated control group of mice that day, as described by R. I. Taber, supra.
The standard initial screening dose of a test compound employed in this assay was 10 mpk […] for both routes of administration. […] A maximum likelihood function was used to determine the ED50 value. (The slopes of the dose-response curves for all test compounds analyzed were compared as described by Tallarida and Murray, Manual of Pharmacologic Calculations, Page 11 (Springer Verlag, New York, 1981)).

[1] = test system: Charles River albino mice; assay: Tail Flick Assay (mouse); format: in vivo; conditions: for Tail Flick Assay activity, Subcutaneous: s.c.
Excerpt: (§1) The "Tail Flick Assay" and the "Hot Plate Assay" (also known as the "Hind Paw Lick Assay") use thermal pain of transient duration, and are tests in which the pain threshold of the mice or rats being analyzed has not been altered. They are useful for evaluating the ability of a compound or drug to increase the animal's pain threshold (i.e. prolong response latencies), rather than to restore normal thresholds.
(§2) The heat-induced response to the Tail Flick Assay is a reflex reaction mediated at the level of the spinal cord. The heat-induced response to the Hot Plate Assay, however, is a more complex behavior requiring integration at higher centers in the brain.
The Tail Flick Assay and the Hot Plate Assay were performed generally in the manner described by G. Woolfe et al., "The Evaluation of the Analgesic Action of Pethidine Hydrochloride (Demerol)," J. Pharmacol. Exp. Ther., 80, 300, (1944), F. D'Amour et al., "A Method for Determining Loss of Pain Sensation," J. PharmacoI. Exp. Ther., 72, 74, 300-307 (1941), and E. Drower et al., "The Antinociceptive Effects of Prostaglandin Antagonists in the Rat," European Journal of Pharmacology, 133, 249-256 (1987).
Male Charles River albino mice and male Charles River Sprague-Dawley rats weighing 20 to 30 g, and 200 to 250 g, respectively, were employed in these assays.
Tail flick response latencies (defined as the time that elapsed between the onset of a high intensity beam of light and the reflex removal of the mouse or rat's tail) and hot plate response latencies (defined as the time that elapsed between the placement of a mouse or rat on a 55 degrees Celsius surface and a lick of the hind paw) were separately, but consecutively, measured before (baseline) and again at fixed intervals after subcutaneous or intracerebroventricular administration of one of the pentapeptide compounds of the invention, the Mosberg Pentapeptide, or after the administration of saline (controls). The cut-off latencies established to prevent tissue damage in the animals are 12 seconds or 14 seconds in the mouse and rat, respectively, in the Tail Flick Assay, and 40 seconds for both species in the Hot Plate Assay. The significance of any increase in tail flick response latency or hot plate response latency is determined using analyses of variance.
One way analyses of variance were used to determine the significance of the effect of the pentapeptides on response latencies. […]
(§3) "Activity" or "Inactivity" was determined at a particular concentration of the peptide by a significant increase in tail flick or hot plate latencies above normal latencies.
(§4) The data resulting from the Tail Flick Assay and the Hot Plate Assay are presented in Tables II and III below, respectively. The numbers in parentheses are calculated ED50 values.

[2] = test system: Charles River Sprague-Dawley rats; assay: Tail Flick Assay (rat); format: in vivo; conditions: s.c., at 30 mpk
Excerpt: as §1
The heat-induced response to the Tail Flick Assay is a reflex reaction mediated at the level of the spinal cord. The heat-induced response to the Hot Plate Assay, however, is a more complex behavior requiring integration at higher centers in the brain. […]
Tail flick response latencies (defined as the time that elapsed between the onset of a high intensity beam of light and the reflex removal of the mouse or rat's tail) and hot plate response latencies (defined as the time that elapsed between the placement of a mouse or rat on a 55 degrees Celsius surface and a lick of the hind paw) were separately, but consecutively, measured before (baseline) and again at fixed intervals after subcutaneous or intracerebroventricular administration of one of the pentapeptide compounds of the invention, the Mosberg Pentapeptide, or after the administration of saline (controls). […]

[3] = test system: Charles River albino mice; assay: Hot Plate Assay (mouse); format: in vivo
Excerpt: as §1, §2
The Tail Flick Assay and the Hot Plate Assay were performed generally in the manner described by G. Woolfe et al., "The Evaluation of the Analgesic Action of Pethidine Hydrochloride (Demerol)," J. Pharmacol. Exp. Ther., 80, 300, (1944), F. D'Amour et al., "A Method for Determining Loss of Pain Sensation," J. PharmacoI. […]
Tail flick response latencies (defined as the time that elapsed between the onset of a high intensity beam of light and the reflex removal of the mouse or rat's tail) and hot plate response latencies (defined as the time that elapsed between the placement of a mouse or rat on a 55 degrees Celsius surface and a lick of the hind paw) were separately, but consecutively, measured before (baseline) and again at fixed intervals after subcutaneous or intracerebroventricular administration of one of the pentapeptide compounds of the invention, the Mosberg Pentapeptide, or after the administration of saline (controls). […] The significance of any increase in tail flick response latency or hot plate response latency is determined using analyses of variance. […]
as §3, §4

[4] = i.c.v., dose giving half the maximum possible increase in latency

δ opioid receptors, sequence (P33533 whole entry): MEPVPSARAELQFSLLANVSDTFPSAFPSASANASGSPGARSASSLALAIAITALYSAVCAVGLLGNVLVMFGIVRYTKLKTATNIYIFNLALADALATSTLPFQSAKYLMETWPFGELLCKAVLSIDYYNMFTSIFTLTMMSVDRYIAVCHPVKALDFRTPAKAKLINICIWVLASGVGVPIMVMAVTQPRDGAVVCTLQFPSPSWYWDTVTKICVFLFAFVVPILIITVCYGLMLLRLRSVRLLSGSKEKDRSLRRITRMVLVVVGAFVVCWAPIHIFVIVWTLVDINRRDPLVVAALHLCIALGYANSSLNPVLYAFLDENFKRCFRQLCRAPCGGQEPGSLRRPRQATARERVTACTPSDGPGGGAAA
μ opioid receptors, sequence (P33535 whole entry): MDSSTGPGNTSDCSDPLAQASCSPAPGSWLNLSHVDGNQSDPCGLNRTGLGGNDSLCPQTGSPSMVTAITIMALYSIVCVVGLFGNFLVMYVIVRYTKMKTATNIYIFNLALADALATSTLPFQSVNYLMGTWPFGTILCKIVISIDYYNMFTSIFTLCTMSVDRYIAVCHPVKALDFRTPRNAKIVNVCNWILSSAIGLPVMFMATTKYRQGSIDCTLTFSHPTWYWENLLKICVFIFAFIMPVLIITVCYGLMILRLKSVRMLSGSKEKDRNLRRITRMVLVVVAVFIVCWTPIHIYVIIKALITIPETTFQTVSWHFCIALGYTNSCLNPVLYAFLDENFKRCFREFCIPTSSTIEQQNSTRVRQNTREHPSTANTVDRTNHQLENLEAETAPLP

Molecule Cc1cc(O)c(C)c(C)c1CC(N)C(=O)N[C@H]1C(=O)NCC(=O)N[C@@H](Cc2ccccc2)C(=O)N[C@@H](C(=O)O)C(C)(C)SSC1(C)C (single isomer, unassigned) [Example 20 (Diastereomer A), 2,3,6-trimethyl-L-tyrosyl-3-mercapto-D-valylglycyl-L-phenylalanyl-3-mercapto-D-valine, cyclic (2→5) disulfide] has an IC50 (δ opioid receptors) of 0.024 µM and an IC50 (μ opioid receptors) of 24 µM.

Cc1cc(O)cc(C)c1C[C@H](N)C(=O)N[C@H]1C(=O)NCC(=O)N[C@@H](Cc2ccccc2)C(=O)N[C@@H](C(=O)O)C(C)(C)SSC1(C)C [Example 4, 2,6-dimethyl-L-tyrosyl-3-mercapto-D-valylglycyl-L-phenylalanyl-3-mercapto-D-valine, cyclic (2→5)-disulfide] was tested, and the “Writhing Assay, number of mice out of ten in which peptide was active, Intragastric” value (shortened to “Writhing Assay, number … Intragastric”) (CD Charles River mice) was 3/10, the “Writhing Assay ED50 value, Subcutaneous” value (CD Charles River mice) was 2.6 mpk and the “Tail Flick Assay calculated ED50 value, Intracerebroventricular” value [1, 4] was 0.28 µg. The “Tail Flick Assay activity, Subcutaneous” value ([1]; at 33 mpk) was “Active”, the “Tail Flick Assay activity, Subcutaneous” value [2] was “Active” and the “Hot Plate Assay calculated ED50 value, Intracerebroventricular” value [3, 4] was 0.20 µg.

COC(=O)[C@@H]1NC(=O)[C@H](Cc2ccccc2)NC(=O)CNC(=O)[C@H](NC(=O)[C@@H](N)Cc2c(C)cc(O)cc2C)C(C)(C)SSC1(C)C [Example 16, -dimethyl-L-tyrosyl-3-mercapto-D-valylglycyl-L-phenylalanyl-3-mercapto-D-valine, cyclic (2→5)-disulfide, methyl ester] was tested, and the “Writhing Assay, number … Intragastric” value (CD Charles River mice) was 3/10, the “Writhing Assay ED50 value, Subcutaneous” value (CD Charles River mice) was 2.1 mpk and the “Tail Flick Assay activity, Intracerebroventricular” value ([1]; i.c.v., at 10 μg) was “Active”. The “Tail Flick Assay activity, Subcutaneous” value ([1]; at 30 mpk) was “Active”, the “Hot Plate Assay activity, Intracerebroventricular” value ([3]; i.c.v., at 10 μg) was “Active” and the “Hot Plate Assay activity, Subcutaneous” value ([3]; s.c., at 30 mpk) was “Active”.

For Cc1cc(O)cc(C)c1C[C@H](N)C(=O)N[C@H]1C(=O)NCC(=O)N[C@@H](CC2CCCCC2)C(=O)N[C@@H](C(N)=O)C(C)(C)SSC1(C)C [Example 24, 2,6-dimethyl-L-tyrosyl-3-mercapto-D-valylglycyl-3-cyclohexyl-L-alanyl-3-mercapto-D-valinamide, cyclic (2→5)-disulfide], the “Writhing Assay, number … Intragastric” value (CD Charles River mice) was 2/10, the “Writhing Assay, number of mice out of ten in which peptide was active, Subcutaneous” value (CD Charles River mice) was 2/10 and the “Mean IC50 μ/δ Ratio” value (δ opioid receptors; ratio of mean IC50 values for μ and δ opioid receptors, above 1.0 = δ specific) was 1.6.

Cc1ccc(CC(N)C(=O)N[C@H]2C(=O)NCC(=O)N[C@@H](Cc3ccccc3)C(=O)N[C@@H](C(=O)O)C(C)(C)SSC2(C)C)c(C)c1O (single isomer, unassigned) [Example 21 (Diastereomer B), 3-hydroxy-2,4-dimethyl-L-phenylalanyl-3-mercapto-D-valyglycyl-L-phenylalanyl-3-mercapto-D-valine, cyclic (2→5)-disulfide] was tested, and the IC50 (δ opioid receptors) was 0.151 µM.

With Cc1cc(O)cc(C)c1C[C@H](N)C(=O)N[C@H]1C(=O)NCC(=O)N[C@@H](Cc2ccc(F)cc2)C(=O)N[C@@H](C(N)=O)C(C)(C)SSC1(C)C [Example 23, 2,6-dimethyl-L-tyrosyl-3-mercapto-D-valylglycyl-4-fluoro-L-phenylalanyl-3-mercapto-D-valinamide, cyclic (2→5)-disulfide] the “rank order of potency in the Writhing Assay” value (CD Charles River mice; from Table I) was “most potent compound of the invention tested”, the “Writhing Assay, number … Intragastric” value (CD Charles River mice) was 4/10 and the “Writhing Assay ED50 value, Subcutaneous” value (CD Charles River mice) was 1.9 mpk.

In the case of Cc1cc(O)cc(C)c1C[C@H](N)C(=O)N[C@H]1C(=O)NCC(=O)N[C@@H](Cc2ccc(Cl)cc2)C(=O)N[C@@H](C(=O)OCc2ccccc2)C(C)(C)SSC1(C)C [Example 41, 2,6-dimethyl-L-tyrosyl-3-mercapto-D-valylglycyl-4-chloro-L-phenylalanyl-3-mercapto-D-valine, cyclic (2→5)-disulfide, phenylmethyl ester, monohydrochloride], the “Writhing Assay, number … Intragastric” value (CD Charles River mice) is reported as 4/10 and the “Writhing Assay, number of mice out of ten in which peptide was active, Subcutaneous” value (CD Charles River mice) is reported as 3/10.

Reference: patent US5169833A, “Substituted cyclic pentapeptides” (G. D. Searle & Co., priority 1991, dated 1992)
